Reference: PubChem BioAssay (NCI)
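Interpolation was linear, between the two tested concentrations surrounding the appropriate level; five concentrations were tested over 48 hours in 96-well plates. TGI denotes the concentration required for complete inhibition of growth.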 Where a SMILES comes first, the peptide text is derived from it. The star is where a group is joined. Pentanoyl = CCCCC(=O)*; Boc = CC(C)(C)OC(=O)*

Columns and labels:
Assay in all cases: growth of human tumour cells (NCI), 48 h
RXF 393 renal = tested on: RXF 393 renal
HCC-2998 colon = tested on: HCC-2998 colon
KM12 colon = tested on: KM12 colon
HL-60(TB) leukemia = tested on: HL-60(TB) leukemia
MDA-MB-231 breast = tested on: MDA-MB-231 breast
ACHN renal = tested on: ACHN renal
786-0 renal = tested on: 786-0 renal
SN12C renal = tested on: SN12C renal
UACC-257 melanoma = tested on: UACC-257 melanoma
NCI/ADR-RES ovarian = tested on: NCI/ADR-RES ovarian
SNB-75 CNS = tested on: SNB-75 CNS
MDA-N = tested on: MDA-N
NCI-H522 lung = tested on: NCI-H522 lung
SF-295 CNS = tested on: SF-295 CNS
EKVX NSCLC = tested on: EKVX NSCLC
A549 NSCLC = tested on: A549 NSCLC
HT29 colon = tested on: HT29 colon
RPMI-8226 leukemia = tested on: RPMI-8226 leukemia
UO-31 renal = tested on: UO-31 renal

SMILES	TGI (RXF 393 renal) [µM]	TGI (HCC-2998 colon) [µM]	TGI (KM12 colon) [µM]	TGI (HL-60(TB) leukemia) [µM]	TGI (MDA-MB-231 breast) [µM]	TGI (ACHN renal) [µM]	TGI (786-0 renal) [µM]	TGI (SN12C renal) [µM]	TGI (UACC-257 melanoma) [µM]	TGI (NCI/ADR-RES ovarian) [µM]	TGI (SNB-75 CNS) [µM]	TGI (MDA-N) [µM]	TGI (NCI-H522 lung) [µM]	TGI (SF-295 CNS) [µM]	TGI (EKVX NSCLC) [µM]	TGI (A549 NSCLC) [µM]	TGI (HT29 colon) [µM]	TGI (RPMI-8226 leukemia) [µM]	TGI (UO-31 renal) [µM]
CCn1c(-c2ccc(F)cc2)nc2c1C(=O)c1ccccc1C2=O	> 100	> 100	> 100	> 100	> 100	> 100	> 100	> 100	> 100	> 100	> 100	> 100	> 100	> 100	> 100	> 100	> 100	> 100	–
N#Cc1c(NCCc2ccc(F)cc2)c2ccccc2n2c1nc1ccccc12	65.7	> 100	> 100	> 100	36.3	35.2	17.6	> 100	> 100	59.2	30.8	> 100	–	65.4	29.3	> 100	91.5	> 100	39.5
C=C1CCCCCCCCCCC12SCCC2CCCCSC (centres undefined)	50.4	39.2	–	44.7	39	38.9	87.4	53.9	52.8	46.2	–	> 100	36.8	38.3	86.4	> 100	61.4	46	60.4
CN1C(=O)N/C(=C\c2ccc(S(=O)(=O)N/N=C\C(O)C(O)C(O)CO)cc2)C1=O (centres undefined)	> 100	> 100	> 100	> 100	> 100	> 100	> 100	> 100	> 100	> 100	> 100	> 100	–	> 100	> 100	> 100	> 100	> 100	> 100
Cc1n[nH]c(=O)n1/N=C/c1cccs1	> 100	> 100	> 100	–	> 100	> 100	> 100	> 100	> 100	> 100	> 100	> 100	–	> 100	> 100	> 100	> 100	> 100	> 100
CN(C)c1nc2n(CCO)c(-c3ccccc3)c(-c3ccccc3)nc-2c(=O)n1	> 100	> 100	> 100	–	> 100	> 100	> 100	> 100	> 100	> 100	> 100	> 100	> 100	> 100	> 100	> 100	> 100	> 100	> 100
Nc1c(-c2nc3ccccc3o2)sc(=S)n1-c1ccc(Cl)cc1	66.8	> 100	> 100	> 100	64.5	24.1	22.9	> 100	95.6	74.1	–	> 100	49.7	27.3	> 100	39.2	> 100	> 100	> 100
c1ccc(C2SCc3nc4cc5ccccc5cc4n32)cc1 (centres undefined)	> 100	> 100	> 100	–	> 100	> 100	> 100	> 100	> 100	> 100	> 100	> 100	–	> 100	> 100	> 100	> 100	> 100	> 100
COc1cc(C=C2N=C(c3ccccc3)N(n3c(-c4ccccc4)nc4ccccc4c3=O)C2=O)cc(OC)c1OC	39.2	89.6	46.3	> 100	53.1	82.2	45.9	36.2	43	> 100	62.6	92.6	39.7	41	83.5	> 100	78.1	–	> 100
CCOP(=O)(OCC)C(N)Cc1ccc(OC)c(OC)c1 (centres undefined)	> 100	> 100	> 100	> 100	> 100	> 100	> 100	> 100	> 100	> 100	> 100	> 100	> 100	> 100	–	> 100	> 100	> 100	> 100
N#Cc1nc(COCc2ccccc2)oc1N	> 100	> 100	> 100	–	> 100	> 100	> 100	> 100	> 100	> 100	> 100	> 100	> 100	> 100	> 100	> 100	> 100	> 100	> 100
CCC1(CCSC(=N)N)C(=O)NC(=O)NC1=O	> 100	> 100	> 100	> 100	> 100	> 100	> 100	> 100	> 100	> 100	–	> 100	> 100	> 100	> 100	> 100	> 100	> 100	> 100
O=c1oc2nc(-c3ccccc3)cc(C(F)(F)F)c2n1Cc1ccccc1	> 30.3	> 100	> 100	–	> 100	> 100	> 100	> 100	> 100	> 60.4	–	2.68	> 100	> 100	> 100	> 100	> 100	> 30.8	> 100
CCCCOC(=O)NC(Nc1ccc(S(=O)(=O)Nc2ccc(OC)nn2)cc1)(C(F)(F)F)C(F)(F)F	> 100	> 100	> 100	> 100	> 100	> 100	> 100	> 100	> 100	> 100	–	> 100	–	> 100	> 100	> 100	> 100	> 100	> 100
COc1ccc(N=C2C(=Nc3ccc(OC)cc3)N(S(=O)(=O)c3ccccc3)C(=S)N2c2ccccc2)cc1	> 100	> 100	> 100	–	> 100	> 100	> 100	> 100	> 100	> 100	> 100	> 100	> 100	> 100	> 100	> 100	> 100	> 100	> 100
CCCCC(=O)Oc1ccc(CC(NC(=O)OC(C)(C)C)C(=O)NC(C)C(=O)NC(Cc2ccccc2)C(=O)NCC(N)=O)cc1 (centres undefined) (Boc-Y(Pentanoyl)AFG-NH2; configuration not given here)	> 100	38.8	47.8	61	41.6	> 100	> 100	> 100	71.4	> 100	> 100	65.8	39.5	> 100	–	> 100	40	44.8	> 100
CCOC(=O)CC1(O)CCCCC1(Sc1ccc(C)cc1)Sc1ccc(C)cc1 (centres undefined)	> 100	> 100	> 100	> 100	> 100	> 100	> 100	> 100	> 100	> 100	> 100	> 100	51	> 100	> 100	> 100	> 100	–	> 100
Cc1cccc2c(N)c3cccc(C(=O)NCC[N+](C)(C)Cc4sccc4[N+](=O)[O-])c3nc12	33.4	20.8	28.2	> 100	67.7	18.1	> 100	> 100	> 100	> 100	> 100	80.2	29.1	> 100	> 100	16.9	18.6	–	> 100
C=CCC(CC=O)(C(=O)OCC)C(=O)OCC	> 100	–	> 100	> 100	> 100	> 100	> 100	> 100	> 100	> 100	> 100	> 100	> 100	> 100	> 100	> 100	> 100	> 100	> 100
COC(=O)[C@]12CSC[C@H]1C[C@H](c1ccccc1OC)N2	> 100	> 100	> 100	–	> 100	> 100	> 100	> 100	> 100	> 100	> 100	> 100	> 100	> 100	> 100	> 100	–	> 100	> 100
